Measured values from patent US10759816B2, “Heterocyclic compounds as RSV inhibitors” (Enanta Pharmaceuticals, Inc., priority 2016, dated 2020).

Tested on: genotype A, "Long" strain RSV
Experiment: RSV-A in vitro cytoprotection assay in HEp-2 cells (ATPlite readout of cell viability)
Format: cell-based, Human respiratory syncytial virus
Details: human respiratory syncytial virus, HEp-2, HEp-2 cells, genotype A “Long” strain RSV, cytoprotection; read-out: Human RSV-A (“Long” strain) EC50
Text: RSV is a single stranded negative sense RNA virus that causes respiratory tract infections which can be dangerous to infants, the elderly, and immunosuppressed individuals. Currently there is no vaccine, and therapeutic options are both costly and of limited effectiveness. These approved treatments are Ribavirin, and Palivizumab/Synagis (a monoclonal antibody). RSV has two genotypes, A and B, which differ primarily in the structure of the virus' surface “G” attachment protein. Our current primary screen focuses on RSV-A and uses an in vitro cytoprotection assay where compounds are added in 2-fold dilutions to cells which are then subjected to fully replicative viral particles. Cell viability is measured several days later along with separate measurements of compound cytotoxicity. This report focuses on the results of our most recent screening of compounds.
HEp-2 cells, (originally derived from tumors grown in irradiated-cortisonised weanling rats that had been injected with epidermoid carcinoma tissue from a person's larynx, but later found to be indistinguishable from HeLa cells by PCR DNA analysis), were used for the culturing of genotype A, “Long” strain RSV. Flasks were inoculated with RSV and viral stocks were collected once cytopathic effect (CPE) was greater than 90%. Viral stocks in 25% sucrose media were snap frozen using liquid nitrogen to increase viral stability. Viral stock titers were quantified by tissue culture infectious dose 50% (TCID50) using 8,000 cells per well and 3-fold viral dilutions across a 96-well plate, cultured for 4 days.
Following extensive parameter testing, the final assay is run as follows: HEp-2 cells are seeded into the inner 60 wells of a 96-well plate at 8,000 cells per well in a volume of 50 μL using Growth Media (DMEM without phenol red, 1% L-Glut, 1% Penn/Strep, 1% nonessential amino acids, 10% FBS). 2-Fold serial dilutions of control and test compounds are added to the wells in duplicate in a total volume of 25 μL. Viral stock is then added to the wells in a volume of 25 μL, bringing the total volume of each well to 100 μL. Each 96-well plate has a control column of 6 wells with cells and virus but no compound (negative control, max CPE), a column with cells but no compound or virus (positive control, minimum CPE), and a column with no cells or virus or compound (background plate/reagent control). The control wells with cells but no virus are given an additional 25 uL of growth media containing an equal quantity of sucrose as those wells receiving the viral stock in order to keep consistent in media and volume conditions. The outer wells of the plate are filled with 125 μL of growth media to act as a thermal and evaporative moat around the test wells. Following a 4-day incubation period, the plates are read using ATPlite (50 uL added per well), which quantifies the amount of ATP (a measure of cell health) present in each well. Assay plates are read using the Envision luminometer. In parallel, cytotoxicity is examined on an additional 96-well plate treated in an identical manner, but substituting the 25 μL of viral stock for 25 μL of growth media. […] EC50 ranges are as follows: A <0.4 μM; B 0.4-0.8 μM; C >0.8 μM.

Structure (SMILES)	EC50 [µM]
COc1cccc(Oc2cccc(C(=O)N3CCc4cc(C(=O)NC5CC5)sc4-c4ccccc43)n2)c1 [Example 393]	> 0.8
COc1ccc2c(c1)OCCN(c1cccc(C(=O)N3CCc4cc(C(=O)Nc5c(C)cccc5F)sc4-c4ccccc43)n1)C2 [Example 366]	< 0.4
O=C(NC1CC1)c1cc2c(s1)-c1ccccc1N(C(=O)c1cccc(C3CCOCC3)n1)CC2 [Example 60]	0.4 to 0.8
N#Cc1ccc(-c2cccc(C(=O)N3CCc4cc(C(=O)NC5CC5)sc4-c4ccccc43)n2)cn1 [Example 78]	0.4 to 0.8
COC[C@H]1CCN1c1cccc(C(=O)N2CCc3cc(C(=O)Nc4c(C)cccc4F)sc3-c3ccccc32)n1 [Example 507]	< 0.4
Cc1cccc(F)c1NC(=O)c1cc2c(s1)-c1ccccc1N(C(=O)c1cccc(-c3c[nH]nc3N3CCOCC3)n1)CC2 [Example 211]	> 0.8
COCCN(CC(C)C)c1cccc(C(=O)N2CCc3cc(C(=O)Nc4c(C)cccc4F)sc3-c3ccccc32)n1 [Example 118]	< 0.4
Cc1cccc(F)c1NC(=O)c1cc2c(s1)-c1ccccc1N(C(=O)c1cccc(-c3ccnn3C(C)C)n1)CC2 [Example 236]	< 0.4
O=C(NC1CC1)c1cc2c(s1)-c1ccccc1N(C(=O)c1cccc(-c3ccc(C(F)(F)F)nc3)n1)CC2 [Example 73]	0.4 to 0.8
O=C(NC1CC1)c1ccc2c(c1)-c1ccccc1N(C(=O)c1cccc(N3CCCOCC3)n1)CC2 [Example 104]	> 0.8
Cc1cccc(F)c1NC(=O)c1cc2c(s1)-c1ccccc1N(C(=O)c1cccc(N(C[C@H]3CCCO3)C3CCC3)n1)CC2 [Example 481]	< 0.4
Cc1cccc(F)c1NC(=O)c1cc2c(s1)-c1ccccc1N(C(=O)c1cccc(N3CCNS(=O)(=O)CC3)n1)CC2 [Example 446]	< 0.4
Cc1cccc(F)c1NC(=O)c1cc2c(s1)-c1ccccc1N(C(=O)c1cccc(N3CCS(=O)(=O)CC3)n1)CC2 [Example 418]	< 0.4
COC1CCN(c2cccc(C(=O)N3CCc4cc(C(=O)NC5CC5)sc4-c4ccccc43)n2)CC1 [Example 21]	0.4 to 0.8
Cc1cccc(F)c1NC(=O)c1cc2c(s1)-c1ccccc1N(C(=O)c1cccc(-c3cn(C)nc3C3CC3)n1)CC2 [Example 197]	< 0.4
O=C(NC1CC1)c1cc2c(s1)-c1ccccc1N(C(=O)c1cccc(-c3csc(N4CCOCC4)n3)n1)CC2 [Example 167]	> 0.8
Cc1cccc(F)c1NC(=O)c1cc2c(s1)-c1ccccc1N(C(=O)c1cccc(-c3cn(C(=O)OC(C)(C)C)c4ccc(Cl)cc34)n1)CC2 [Example 248]	> 0.8
Cc1ccc2c(-c3cccc(C(=O)N4CCc5cc(C(=O)Nc6c(C)cccc6F)sc5-c5ccccc54)n3)c[nH]c2c1 [Example 247]	< 0.4
Cc1cccc(F)c1NC(=O)c1cc2c(s1)-c1ccccc1N(C(=O)c1cccc(N3CCCC(C)(O)CC3)n1)CC2 (stereo not drawn) [Example 444]	< 0.4
O=C(NC1CC1)c1cc2c(s1)-c1ccccc1N(C(=O)c1cccc(CN3CCOCC3)c1)CC2 [Example 2]	> 0.8
Cn1ccnc1NC(=O)c1cc2c(s1)-c1ccccc1N(C(=O)c1cccc(N3CCOc4ccccc4C3)n1)CC2 [Example 302]	> 0.8
O=C(NC1CC1)c1cc2c(s1)-c1ccccc1N(C(=O)c1cccc(-c3nncn3C3CCOCC3)n1)CC2 [Example 124]	> 0.8
CC(C)Oc1ccc(-c2cccc(C(=O)N3CCc4cc(C(=O)NC5CC5)sc4-c4ccccc43)n2)cn1 [Example 75]	0.4 to 0.8
CC(=O)c1ccc(-c2cccc(C(=O)N3CCc4cc(C(=O)NC5CC5)sc4-c4ccccc43)n2)cc1 [Example 63]	0.4 to 0.8
O=C(NC1CC1)c1cc2c(s1)-c1ccccc1N(C(=O)c1ccnc(N3CCOCC3)n1)CC2 [Example 51]	0.4 to 0.8
Cc1cccc(F)c1NC(=O)c1cc2c(s1)-c1ccccc1N(C(=O)c1cccc(N3CCCC(F)(F)CC3)n1)CC2 [Example 403]	< 0.4
Cc1cnc(N2CC3(CCCOC3)C2)c(NC(=O)c2ccc(C(=O)N3CCc4cc(C(=O)Nc5c(C)cccc5F)sc4-c4ccccc43)cc2)c1 [Example 138]	> 0.8

Structure (SMILES)	EC50 [µM]
COc1cc(-c2cccc(C(=O)N3CCc4cc(C(=O)NC5CC5)sc4-c4ccccc43)n2)ccn1 [Example 72]	0.4 to 0.8
O=C(NC1CC1)c1cc2c(s1)-c1ccccc1N(C(=O)c1cc(N3CCOCC3)ncn1)CC2 [Example 49]	> 0.8
Cc1cccc(F)c1NC(=O)c1cc2c(s1)-c1ccccc1N(C(=O)c1cccc(-c3c[nH]c4c(C)cccc34)n1)CC2 [Example 253]	< 0.4
Cc1cccc(F)c1NC(=O)c1cc2c(s1)-c1ccccc1N(C(=O)c1cccc(N3CCS(=O)(=O)CC3C)n1)CC2 (stereo not drawn) [Example 432]	< 0.4
Cc1cccc(F)c1NC(=O)c1cc2c(s1)-c1ccccc1N(C(=O)c1cccc(N3CCCN(C(=O)C4CC4)CC3)n1)CC2 [Example 388]	< 0.4
Cc1cccc(F)c1NC(=O)c1cc2c(s1)-c1ccccc1N(C(=O)c1cccc(NCc3ncco3)n1)CC2 [Example 350]	< 0.4
Cc1cccc(F)c1NC(=O)c1cc2c(s1)-c1ccccc1N(C(=O)c1cccc(N3CCS(=O)(=O)c4c(F)cccc4C3)n1)CC2 [Example 435]	< 0.4
O=C(NC1CC1)c1cc2c(s1)-c1ccccc1N(C(=O)c1cccc(N3CCC4(CC3)CC4)n1)CC2 [Example 25]	0.4 to 0.8
O=C(Nc1ccccc1)c1cc2c(s1)-c1ccccc1N(C(=O)c1cccc(N3CCOc4ccccc4C3)n1)CC2 [Example 299]	0.4 to 0.8
COC[C@H]1CCCN1c1cccc(C(=O)N2CCc3cc(C(=O)Nc4c(C)cccc4F)sc3-c3ccc(C4CC4)cc32)n1 [Example 500]	> 0.8
CC(=O)N1CC(NC(=O)c2cc3c(s2)-c2ccccc2N(C(=O)c2cccc(-c4c[nH]nc4C4CC4)n2)CC3)C1 [Example 185]	> 0.8
Cc1ccc2c(-c3cccc(C(=O)N4CCc5cc(C(=O)Nc6c(C)cccc6F)sc5-c5ccccc54)n3)cn(C(=O)OC(C)(C)C)c2c1 [Example 246]	> 0.8
Cc1cccc(F)c1NC(=O)c1cc2c(s1)-c1ccccc1N(C(=O)c1cccc(-n3cncc3C3CC3)n1)CC2 [Example 148]	> 0.8
O=C(Nc1cc2c(s1)-c1ccccc1N(C(=O)c1cccc(N3CCOc4ccccc4C3)n1)CC2)NC1CC1 [Example 312]	> 0.8
Cc1cccc(F)c1NC(=O)c1cc2c(s1)-c1ccccc1N(C(=O)c1cccc(-c3cnn(CCN(C)C)c3C3CC3)n1)CC2 [Example 229]	> 0.8
O=C(Nc1ccc[nH]c1=O)c1cc2c(s1)-c1ccccc1N(C(=O)c1cccc(N3CCOc4ccccc4C3)n1)CC2 [Example 303]	> 0.8
CC(C)n1nccc1-c1cccc(C(=O)N2CCc3cc(C(=O)Nc4ccccc4N)sc3-c3ccccc32)n1 [Example 241]	< 0.4
Cc1cccc(F)c1NC(=O)c1cc2c(s1)-c1ccccc1N(C(=O)c1cccc(NC3CCS(=O)(=O)C3)n1)CC2 (stereo not drawn) [Example 438]	< 0.4
O=C(NC1CC1)c1cc2c(s1)-c1ccccc1N(C(=O)c1cccc(N[C@@H]3CCOC3)n1)CC2 [Example 290]	> 0.8
Cc1cnc(N2CC3(CCOCC3)C2)c(NS(=O)(=O)c2ccc(C(=O)N3CCc4cc(C(=O)Nc5c(C)cccc5F)sc4-c4ccccc43)cc2)c1 [Example 133]	> 0.8
Cc1cccc(F)c1NC(=O)c1cc2c(s1)-c1ccccc1N(C(=O)c1cccc(-c3c[nH]c4ccc(Cl)cc34)n1)CC2 [Example 249]	< 0.4
Cc1cccc(F)c1NC(=O)c1cc2c(s1)-c1ccccc1N(C(=O)c1cccc(-c3ccc4occc4c3)n1)CC2 [Example 193]	> 0.8
COc1ccc(=O)n(-c2cccc(C(=O)N3CCc4cc(C(=O)Nc5c(C)cccc5F)sc4-c4ccccc43)n2)c1 [Example 407]	> 0.8
O=C(NC1CC1)c1cc2c(s1)-c1ccccc1N(C(=O)c1cccc(N3C4CCC3COC4)n1)CC2 [Example 29]	0.4 to 0.8
Cc1cccc(F)c1NC(=O)c1cc2c(s1)-c1ccccc1N(C(=O)c1cccc(-n3cnnc3C3CC3)n1)CC2 [Example 145]	> 0.8
Cc1cccc(F)c1NC(=O)c1cc2c(s1)-c1ccccc1N(C(=O)c1cccc(N[C@@H]3CCOC3)n1)CC2 [Example 456]	< 0.4
Cc1cccc(F)c1NC(=O)c1cc2c(s1)-c1ccccc1N(C(=O)c1cccc(N3CCOc4cccc(Br)c4C3)n1)CC2 [Example 369]	0.4 to 0.8
